Experimental findings from patent US20240228489A1, “POSITIVE ALLOSTERIC MODULATORS OF THE MUSCARINIC ACETYLCHOLINE RECEPTOR M1” (Vanderbilt University, priority 2021, published 2024) are described below.

Assay [1] concerns the target T1, human mAChR M1 (Homo sapiens, UniProt P11229).
T1 sequence (P11229 1-460): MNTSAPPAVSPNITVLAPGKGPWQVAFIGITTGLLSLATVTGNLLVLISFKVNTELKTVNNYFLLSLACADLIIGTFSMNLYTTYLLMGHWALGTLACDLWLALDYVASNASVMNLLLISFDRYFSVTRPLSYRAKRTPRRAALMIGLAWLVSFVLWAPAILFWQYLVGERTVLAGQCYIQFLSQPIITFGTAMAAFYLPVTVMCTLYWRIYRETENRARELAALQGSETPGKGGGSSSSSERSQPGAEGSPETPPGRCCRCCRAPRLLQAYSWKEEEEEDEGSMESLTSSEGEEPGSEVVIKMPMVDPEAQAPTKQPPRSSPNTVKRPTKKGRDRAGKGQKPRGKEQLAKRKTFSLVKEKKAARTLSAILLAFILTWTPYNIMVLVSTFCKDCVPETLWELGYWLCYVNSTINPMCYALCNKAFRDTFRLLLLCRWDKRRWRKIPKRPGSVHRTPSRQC
The assay is described as follows: mAChR M1 cell-based functional assay (calcium mobilization), PAM mode: increase in the EC20 acetylcholine response. The gist of the method: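 CHO-K1 cells stably expressing hM1, Fluo-4 loaded, read by FDSS calcium flux at 1 Hz. Compound (11-point 1:3 CRC) added at 4 s, EC20 acetylcholine at 144 s, EC80 at 230 s. PAM activity taken as concentration-dependent increase in EC20 ACh response, fitted by four-parameter logistic for EC50/Emax.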
A general note: Calcium assays in cells follow changes in intracellular calcium, usually with a dye or a luminescent sensor.

Assay [2] has as its target T1, human mAChR M1. The assay is described as follows: mAChR M1 cell-based functional assay (calcium mobilization), agonist mode: compound alone, Emax relative to acetylcholine maximum. Conditions: for EC50 / Agonist Activity Human M1 EC50: human mAChR M1; call rule not given here. The gist of the method:
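CHO-K1 cells stably expressing hM1 were loaded with Fluo-4 AM, and calcium flux was read as fluorescence ratio. Compound was added alone from an 11-point 1:3 curve, and the agonist response was fitted with a four-parameter logistic. Emax is expressed relative to the acetylcholine maximum.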

Setting [3] is: relative to the maximum for acetylcholine.

Consider `[2H]C1([2H])c2ncccc2C(=O)N1Cc1c(F)cc(-c2ccc(OCC3CCCO3)c3nn(C)cc23)cc1F` (stereo not shown) [Compound 134, 6-(2,6-difluoro-4-(2-methyl-7-((tetrahydrofuran-2-yl)methoxy)-2H-indazol-4-yl)benzyl)-6,7-dihydro-5H-pyrrolo[3,4-b]pyridin-5-one-7,7-d2], for which the EC50 (in general, the midpoint of the concentration-response curve) on human mAChR M1 [1] is 701 nM; at human mAChR M1 [2], not below 10000 nM. The Emax (as a rule, the maximal effect, on the per cent scale that the assay sets) came to 75% at human mAChR M1 [1] and 23% at human mAChR M1 [2] (setting [3]).
For the molecule `[2H]C1([2H])c2ncccc2C(=O)N1Cc1ccc(-c2ccc3c(cnn3C)c2)cc1F` [Compound 10, 6-(2-fluoro-4-(1-methyl-1H-indazol-5-yl)benzyl)-6,7-dihydro-5H-pyrrolo[3,4-b]pyridin-5-one-7,7-d2], on human mAChR M1 [1], the concentration giving a half-maximal response (EC50) turned out to be 1460 nM and the Emax amounted to 62%. In addition, the “Agonist Activity Human M1 EC50” value on human mAChR M1 [2] is listed as “Inactive”. The Emax at human mAChR M1 [2] (setting [3]) came to 4%.
Regarding `[2H]C1([2H])c2ncccc2C(=O)N1Cc1c(F)cc(-c2ccc(OCCOC(C)C)c3nn(C)cc23)cc1F` [Compound 149, 6-(2,6-difluoro-4-(7-(2-isopropoxyethoxy)-2-methyl-2H-indazol-4-yl)benzyl)-6,7-dihydro-5H-pyrrolo[3,4-b]pyridin-5-one-7,7-d2], the half-maximal effective concentration (EC50) at human mAChR M1 [1] was 717 nM; at human mAChR M1 [2], not below 10000 nM. The maximal response (Emax) came out at 77% on human mAChR M1 [1] and 26% on human mAChR M1 [2] (setting [3]).
Turning to `[2H]C1([2H])c2ncccc2C(=O)N1Cc1c(F)cc(-c2cc(C(F)F)cc3nn(C)cc23)cc1F` [Compound 81, 6-(4-(6-(difluoromethyl)-2-methyl-2H-indazol-4-yl)-2,6-difluorobenzyl)-6,7-dihydro-5H-pyrrolo[3,4-b]pyridin-5-one-7,7-d2], on human mAChR M1 [1], the EC50 is 159 nM and the maximum response (Emax) came out at 48%. Further, on human mAChR M1 [2], the “Agonist Activity Human M1 EC50” value is “Inactive”. In addition, the maximum response (Emax) on human mAChR M1 [2] (setting [3]) was found to be 2%.
For `[2H]C1([2H])c2ncccc2C(=O)N1Cc1ccc(-c2ccc(OCCOC(C)C)c3nn(C)cc23)cc1F` [Compound 153, 6-(2-fluoro-4-(7-(2-isopropoxyethoxy)-2-methyl-2H-indazol-4-yl)benzyl)-6,7-dihydro-5H-pyrrolo[3,4-b]pyridin-5-one-7,7-d2], the EC50 on human mAChR M1 [1] was 1340 nM; at human mAChR M1 [2], not below 10000 nM. For the same molecule, the maximum response (Emax) at human mAChR M1 [1] was 79%; on human mAChR M1 [2] (setting [3]), 15%.
Turning to `[2H]C1([2H])c2ncccc2C(=O)N1Cc1c(F)cc(-c2ccc(C(F)(F)F)c3nn(C)cc23)cc1C1CC1` [Compound 207, 6-(2-cyclopropyl-6-fluoro-4-(2-methyl-7-(trifluoromethyl)-2H-indazol-4-yl)benzyl)-6,7-dihydro-5H-pyrrolo[3,4-b]pyridin-5-one-7,7-d2], the EC50 on human mAChR M1 [1] is 673 nM; on human mAChR M1 [2], 8070 nM. For the same molecule, the maximum response (Emax) on human mAChR M1 [1] worked out at 84%; at human mAChR M1 [2] (setting [3]) it was 25%.
Consider `[2H]C1([2H])c2ncccc2C(=O)N1Cc1c(F)cc(-c2cccc3c2cnn3C(F)F)cc1F` [Compound 60, 6-(4-(1-(difluoromethyl)-1H-indazol-4-yl)-2,6-difluorobenzyl)-6,7-dihydro-5H-pyrrolo[3,4-b]pyridin-5-one-7,7-d2], for which, at human mAChR M1 [1], the EC50 was found to be 693 nM and the “PAM Activity Emax” value was 34%. For the same molecule, the “Agonist Activity Human M1 EC50” value at human mAChR M1 [2] is reported as “Inactive”. Besides, the “Agonist Activity Emax” value on human mAChR M1 [2] (setting [3]) is on record as 4%.
With `[2H]C1([2H])c2ncccc2C(=O)N1Cc1ccc(-c2cccc3nn(C)cc23)cc1F` [Compound 23, 6-(2-fluoro-4-(2-methyl-2H-indazol-4-yl)benzyl)-6,7-dihydro-5H-pyrrolo[3,4-b]pyridin-5-one-7,7-d2], on human mAChR M1 [1], the concentration giving a half-maximal response (EC50) came out at 1130 nM and the maximal effect (Emax) came to 76%. For the same molecule, at human mAChR M1 [2], the “Agonist Activity Human M1 EC50” value was “Inactive”. The maximal effect (Emax) on human mAChR M1 [2] (setting [3]) turned out to be 7%.
In the case of `[2H]C1([2H])c2ncccc2C(=O)N1Cc1c(F)cc(-c2cc(F)c(F)c3nn(C([2H])([2H])[2H])cc23)cc1F` [Compound 106, 6-(4-(6,7-difluoro-2-(methyl-d3)-2H-indazol-4-yl)-2,6-difluorobenzyl)-6,7-dihydro-5H-pyrrolo[3,4-b]pyridin-5-one-7,7-d2], at human mAChR M1 [1], the 50% effective concentration (EC50) is 140 nM and the Emax turned out to be 30%. On human mAChR M1 [2], the “Agonist Activity Human M1 EC50” value was “Inactive”. Further, on human mAChR M1 [2] (setting [3]), the maximum response (Emax) came out at 2%.
For `[2H]C1([2H])c2ncccc2C(=O)N1Cc1c(F)cc(-c2cn(C)c(=O)c3c2cnn3C([2H])([2H])[2H])cc1F` [Compound 92, 4-(3,5-difluoro-4-((5-oxo-5,7-dihydro-6H-pyrrolo[3,4-b]pyridin-6-yl-7,7-d2)methyl)phenyl)-6-methyl-1-(methyl-d3)-1,6-dihydro-7H-pyrazolo[3,4-c]pyridin-7-one] the same measures were 2400 nM, 54%, “Inactive” and 2%.
The like results for `[2H]C1([2H])c2ncccc2C(=O)N1Cc1ccc(-c2cccc3nncn23)cc1` [Compound 239, 6-(4-([1,2,4]triazolo[4,3-a]pyridin-5-yl)benzyl)-6,7-dihydro-5H-pyrrolo[3,4-b]pyridin-5-one-7,7-d2] were, in that order, more than 10000 nM, 44%, “Inactive” and 3%.
As for `[2H]C1([2H])c2ncccc2C(=O)N1Cc1c(F)cc(-c2cccc3nn(CF)cc23)cc1F` [Compound 44, 6-(2,6-difluoro-4-(2-(fluoromethyl)-2H-indazol-4-yl)benzyl)-6,7-dihydro-5H-pyrrolo[3,4-b]pyridin-5-one-7,7-d2], the 50% effective concentration (EC50) on human mAChR M1 [1] was 413 nM; on human mAChR M1 [2], more than 10000 nM. For the same molecule, the values for the maximal effect (Emax) at human mAChR M1 [1] and at human mAChR M1 [2] (setting [3]) were 78% and 28%, respectively.
As to `[2H]C1([2H])c2ncccc2C(=O)N1Cc1c(F)cc(-c2ccc(OC3CC3)c3nn(C)cc23)cc1OCC(C)C` [Compound 212, 6-(4-(7-cyclopropoxy-2-methyl-2H-indazol-4-yl)-2-fluoro-6-isobutoxybenzyl)-6,7-dihydro-5H-pyrrolo[3,4-b]pyridin-5-one-7,7-d2], the EC50 at human mAChR M1 [1] came out at 1450 nM. For the same molecule, the results for the maximum response (Emax) on human mAChR M1 [1] and on human mAChR M1 [2] (setting [3]) were 82% and 2%, respectively. For the same molecule, the “Agonist Activity Human M1 EC50” value on human mAChR M1 [2] is recorded as “Inactive”.
Consider `[2H]C1([2H])c2ncccc2C(=O)N1Cc1ccc(-c2ccc(OCCOC3CC3)c3nn(C)cc23)cc1F` [Compound 154, 6-(4-(7-(2-cyclopropoxyethoxy)-2-methyl-2H-indazol-4-yl)-2-fluorobenzyl)-6,7-dihydro-5H-pyrrolo[3,4-b]pyridin-5-one-7,7-d2], for which the EC50 on human mAChR M1 [1] was 1090 nM; at human mAChR M1 [2], not below 10000 nM. Moreover, the maximal response (Emax) on human mAChR M1 [1] was determined as 77%; on human mAChR M1 [2] (setting [3]), 17%.
For `[2H]C1([2H])c2ncccc2C(=O)N1Cc1c(F)cc(-c2ccc(OC3CCOC3)c3nn(C([2H])([2H])[2H])cc23)cc1F` (stereo not shown) [Compound 128, 6-(2,6-difluoro-4-(2-(methyl-d3)-7-((tetrahydrofuran-3-yl)oxy)-2H-indazol-4-yl)benzyl)-6,7-dihydro-5H-pyrrolo[3,4-b]pyridin-5-one-7,7-d2] the same measures were 428 nM, 6070 nM, 63% and 18%.
For the molecule `[2H]C1([2H])c2ncccc2C(=O)N1Cc1c(F)cc(-c2cccc3c2cnn3C(C)C)cc1F` [Compound 64, 6-(2,6-difluoro-4-(1-isopropyl-1H-indazol-4-yl)benzyl)-6,7-dihydro-5H-pyrrolo[3,4-b]pyridin-5-one-7,7-d2], on human mAChR M1 [1], the 50% effective concentration (EC50) amounted to 1840 nM. Also, the results for the Emax at human mAChR M1 [1] and on human mAChR M1 [2] (setting [3]) were 79% and 2%, respectively. The “Agonist Activity Human M1 EC50” value at human mAChR M1 [2] is reported as “Inactive”.
For `[2H]C1([2H])c2ncccc2C(=O)N1Cc1c(F)cc(-c2cnc3nn(C([2H])([2H])[2H])cc3c2)cc1F` [Compound 115, 6-(2,6-difluoro-4-(2-(methyl-d3)-2H-pyrazolo[3,4-b]pyridin-5-yl)benzyl)-6,7-dihydro-5H-pyrrolo[3,4-b]pyridin-5-one-7,7-d2] the same measures were 680 nM, 68%, 6% and “Inactive”.
Turning to `[2H]C1([2H])c2ncccc2C(=O)N1Cc1ccc(-c2cnc3nn(C)cc3c2)cc1` [Compound 13, 6-(4-(2-methyl-2H-pyrazolo[3,4-b]pyridin-5-yl)benzyl)-6,7-dihydro-5H-pyrrolo[3,4-b]pyridin-5-one-7,7-d2], at human mAChR M1 [1], the EC50 was found to be 5190 nM and the maximal response (Emax) was 75%. Moreover, at human mAChR M1 [2], the “Agonist Activity Human M1 EC50” value is “Inactive”. Besides, the Emax on human mAChR M1 [2] (setting [3]) was 3%.
As to `[2H]C1([2H])c2ncccc2C(=O)N1Cc1c(F)cc(-c2cccc3nn(C([2H])([2H])[2H])cc23)cc1C1CC1` [Compound 190, 6-(2-Cyclopropyl-6-fluoro-4-(2-(methyl-d3)-2H-indazol-4-yl)benzyl)-6,7-dihydro-5H-pyrrolo[3,4-b]pyridin-5-one-7,7-d2], the half-maximal effective concentration (EC50) came out at 119 nM at human mAChR M1 [1] and 7520 nM on human mAChR M1 [2]. In addition, the Emax at human mAChR M1 [1] was found to be 84%; on human mAChR M1 [2] (setting [3]), 37%.
